# In patent US11845770B2, “Ascaroside derivatives and methods of use” (California Institute of Technology, priority 2019, dated 2023):
# Columns and labels:
# Assay type in all cases: in vitro ADME
# [1] = Stability in plasma (rat); conditions: after 120 minutes, 37° C.
# Method: (§1) The pH of plasma was adjusted to 7.4±0.1 if required. 1 mM intermediate solution was prepared by diluting 10 μL of the 10 mM stock solution of 1 with 90 μL DMSO; 1 mM intermediate of positive control propantheline bromide was prepared by diluting 10 μL of the stock solution with 90 μL ultra-pure water. 100 μM dosing solution was prepared by diluting 10 μL of the 1 mM intermediate solution with 90 μL of 45% MeOH/H2O. 98 μL of blank plasma was spiked with 2 μL of the 100 μM dosing solution to achieve a final concentration of 2 μM of the compound in duplicate. Samples were incubated at 37° C. in a water bath. At each time point (0, 10, 30, 60 and 120 min), 400 μL of stop solution (200 ng/mL tolbutamide plus 200 ng/mL labetalol in 50% ACN/MeOH) was added and was mixed thoroughly to precipitate protein. Sample plates were centrifuged at 4,000 rpm for 10 min. An aliquot of supernatant (100 μL) was transferred from each well and was mixed with 200 μL ultra-pure water. The samples were shaken at 800 rpm for about 10 min before LC/MS/MS analysis.
# (§2) The remaining percentage of compound 1 (test article) after incubation was calculated according to the following equation.
# [2] = Stability in hepatocytes (human); conditions: cryopreserved human hepatocytes (suspension)
# Method: 10 mM of 1 was provided as a 1000× stock solution in dimethylsulfoxide (DMSO), and the stock solution was diluted to 1 mM with DMSO in 96-well plates. 30 mM of positive compounds (7-ethoxycoumarin and 7-hydroxycoumarin) were provided as a 1000× stock solution in DMSO, and the stock solution was diluted to 3 mM with DMSO in 96-well plates. 20 μL of 1000× stock solution of each compound were pipetted and was mixed with 380 μL of 45% MeOH/H2O to obtain 50 μM of 1 and 150 μM of the positive control compound solutions to form 50× intermediate solutions. 20 μL of 50× intermediate solution of each compound were pipetted and was mixed with […] of pre-warmed incubation medium to obtain 5 μM of 1 and 15 μM of the positive control compound solutions to form 5× working solutions. The incubation medium was Williams' Medium E (no phenol red) containing 2 mM L-glutamine and 25 mM HEPES. 10 μL of 5× working solutions of each compound were pipetted into appropriate wells in a 96-well plate for time points of 0 minutes, 15 minutes, 30 minutes, 60 minutes, and 90 minutes in duplicates. The plates with compounds were kept warm in an incubator at 37° C.
# A cell suspension was prepared by thawing cryopreserved cells, isolating the cells, and suspending the cells in thawing medium. […]
# The remaining percentage of 1 after incubation was calculated according to the following equation. […]
# [3] = Stability in plasma (human); conditions: after 120 minutes, 37° C.
# Method: as §1, §2
# [4] = system: Caco-2 cells; test: Bidirectional permeability in Caco-2 cells; conditions: 2 μM, 2 hours
# Method: Caco-2 cells purchased from ATCC were seeded onto […] (PET) in 96-well BD Insert plates at 1×10^5 cells/cm^2, and the medium was refreshed every 4˜5 days until to the 21st to 28th day for formation of a confluent cell monolayer.
# The transport buffer in the study was Hank's balanced salt solution (HBSS) with 10 mM HEPES at pH 7.40±0.05. Compound 1 was tested at 2 μM bi-directionally in duplicate. Digoxin was tested at 10 μM bi-directionally in duplicate, while nadolol and metoprolol were tested at 2 μM in A to B direction in duplicate. Final DMSO concentration was adjusted to less than 1%. […] Concentrations of compound 1 and […] in starting solution, donor solution, and receiver solution were quantified by LC/MS/MS methodologies, using peak area ratio of analyte/internal standard. […]
# The apparent permeability coefficient Papp (cm/s) was calculated using the equation: Papp=(dCr/dt)×Vr/(A×C0) where dCr/dt is the cumulative concentration of compound in the receiver chamber as a function of time (μM/s); Vr is the solution volume in the receiver chamber (0.075 mL on the apical side, 0.25 mL on the basolateral side); A is the surface area for the transport, i.e. 0.0804 cm^2 for the area of the monolayer; Co is the initial concentration in the donor chamber (μM).
# The efflux ratio was calculated using the equation: Efflux Ratio=Papp(BA)/Papp(AB) […]
remaining percentage after incubation [1],half-life at 1 µM [2],remaining percentage after incubation [3],bidirectional permeability [4],SMILES
19.2%,106 min,86.5%,high bidirectional permeability,"C[C@H](CC/C=C/C(=O)OC(C)(C)C)O[C@@H]1O[C@@H](C)[C@H](O)C[C@H]1O [Compound 1, tert-butyl (2E,6R)-6-{[(2R,3R,5R,6S)-3,5-dihydroxy-6-methyloxan-2-yl]oxy}hept-2-enoate]"
99.8%,> 217 min,89.8%,low bidirectional permeability,"C[C@H](CC/C=C/C(=O)O)O[C@@H]1O[C@@H](C)[C@H](O)C[C@H]1O [ascr #7, reference compound]"
